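The compound was tested at five concentrations on cells cultured in 96-well plates, with a 48-hour exposure period. GI50 marks 50% less growth.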 Calls of active or inactive are those of the source. Rule as the data show it: active = GI50 up to about 1.1 µM and inactive = higher. Residues, ends and D or L forms follow the SMILES beside them. *: point of attachment. Boc = CC(C)(C)OC(=O)*
Key:
Test in all cases: NCI-60 cell line screen, 48 h
SK-OV-3 = tested on: SK-OV-3
U-251 = tested on: U-251
SF-539 = tested on: SF-539
OVCAR-3 = tested on: OVCAR-3
SW-620 = tested on: SW-620
SF-295 = tested on: SF-295
SF-268 = tested on: SF-268
SR = tested on: SR
HOP-92 = tested on: HOP-92
HCC 2998 = tested on: HCC 2998
Hs-578T = tested on: Hs-578T
OVCAR-8 = tested on: OVCAR-8
MDA-MB-435 = tested on: MDA-MB-435
SK-MEL-5 = tested on: SK-MEL-5
SNB-75 = tested on: SNB-75
NCI/ADR-RES = tested on: NCI/ADR-RES
MCF7 = tested on: MCF7
HT-29 = tested on: HT-29
HL-60 = tested on: HL-60
T47D = tested on: T47D

SMILES | GI50 (SK-OV-3) | GI50 (U-251) | GI50 (SF-539) | GI50 (OVCAR-3) | GI50 (SW-620) | GI50 (SF-295) | GI50 (SF-268) | GI50 (SR) | GI50 (HOP-92) | GI50 (HCC 2998) | GI50 (Hs-578T) | GI50 (OVCAR-8) | GI50 (MDA-MB-435) | GI50 (SK-MEL-5) | GI50 (SNB-75) | GI50 (NCI/ADR-RES) | GI50 (MCF7) | GI50 (HT-29) | GI50 (HL-60) | GI50 (T47D)
COC(=O)c1ccc(COC(=O)N2C=CCC2C(=O)O)cc1 (stereo not given) | > 100 µM (inactive) | > 100 µM (inactive) | > 100 µM (inactive) | > 100 µM (inactive) | > 100 µM (inactive) | > 100 µM (inactive) | > 100 µM (inactive) | > 100 µM (inactive) | 63 µM (inactive) | > 100 µM (inactive) | > 100 µM (inactive) | > 100 µM (inactive) | > 100 µM (inactive) | > 100 µM (inactive) | > 100 µM (inactive) | > 100 µM (inactive) | > 100 µM (inactive) | > 100 µM (inactive) | – | –
CC(C)(C)OC(=O)N1CCc2[nH][nH]c(=O)c2C1 | > 100 µM (inactive) | > 100 µM (inactive) | > 100 µM (inactive) | > 100 µM (inactive) | > 100 µM (inactive) | > 100 µM (inactive) | > 100 µM (inactive) | > 100 µM (inactive) | > 100 µM (inactive) | – | > 100 µM (inactive) | > 100 µM (inactive) | > 100 µM (inactive) | – | – | > 100 µM (inactive) | > 100 µM (inactive) | > 100 µM (inactive) | > 100 µM (inactive) | –
CCOC(=O)c1oc2ccc(OC)c3c2c1CCC3 | > 100 µM (inactive) | > 100 µM (inactive) | > 100 µM (inactive) | > 100 µM (inactive) | > 100 µM (inactive) | > 100 µM (inactive) | > 100 µM (inactive) | 37.9 µM (inactive) | 41.6 µM (inactive) | > 100 µM (inactive) | – | > 100 µM (inactive) | – | 84.7 µM (inactive) | > 100 µM (inactive) | – | – | > 10 µM (inactive) | > 100 µM (inactive) | –
COC(=O)[C@@H]1N2C(=S)N(c3ccccc3)C(=O)[C@H]2SC1(C)C | > 100 µM (inactive) | > 100 µM (inactive) | > 100 µM (inactive) | > 100 µM (inactive) | > 100 µM (inactive) | > 100 µM (inactive) | > 100 µM (inactive) | 65.6 µM (inactive) | 55.6 µM (inactive) | > 100 µM (inactive) | – | > 100 µM (inactive) | > 100 µM (inactive) | > 100 µM (inactive) | > 100 µM (inactive) | > 100 µM (inactive) | > 100 µM (inactive) | > 100 µM (inactive) | – | > 100 µM (inactive)
C/N=C(\N=c1/ss/c(=N\C)n1C)N(C)C.[O-][Cl+3]([O-])([O-])O | > 100 µM (inactive) | > 100 µM (inactive) | 79.1 µM (inactive) | 53.1 µM (inactive) | > 100 µM (inactive) | > 100 µM (inactive) | > 100 µM (inactive) | 70.8 µM (inactive) | > 100 µM (inactive) | > 100 µM (inactive) | – | 97.1 µM (inactive) | – | > 100 µM (inactive) | > 100 µM (inactive) | – | – | > 100 µM (inactive) | 43.5 µM (inactive) | –
Cc1cs/c(=N\C(P(=O)(O)O)P(=O)(O)O)n1C | > 100 µM (inactive) | > 100 µM (inactive) | > 100 µM (inactive) | > 100 µM (inactive) | > 100 µM (inactive) | > 100 µM (inactive) | > 100 µM (inactive) | > 100 µM (inactive) | 42.9 µM (inactive) | > 100 µM (inactive) | 10.1 µM (inactive) | > 100 µM (inactive) | > 100 µM (inactive) | 86.5 µM (inactive) | > 100 µM (inactive) | > 100 µM (inactive) | > 100 µM (inactive) | > 100 µM (inactive) | < 0.01 µM (active) | –
CC(=O)OC1CC2C(C)(C)C(=O)C=C[C@]2(C)C2CCC3(C)C(c4ccoc4)[C@@H](O)[C@H]4O[C@]43[C@]12C (stereo not given in full) | 20.7 µM (inactive) | 14.6 µM (inactive) | 17.9 µM (inactive) | 17.7 µM (inactive) | 18.9 µM (inactive) | 23.3 µM (inactive) | 24.5 µM (inactive) | 16.1 µM (inactive) | 20.3 µM (inactive) | 16.1 µM (inactive) | – | 18.3 µM (inactive) | – | 17.5 µM (inactive) | 24 µM (inactive) | – | – | 21.7 µM (inactive) | 24.9 µM (inactive) | –
COC(=O)C(CCS(=O)(=O)CC(=O)C(=O)Nc1cccc(C(C)=O)c1)C(=O)OC | > 100 µM (inactive) | > 89.7 µM (inactive) | > 100 µM (inactive) | > 100 µM (inactive) | > 100 µM (inactive) | > 100 µM (inactive) | 0.586 µM (active) | 20.9 µM (inactive) | > 100 µM (inactive) | > 100 µM (inactive) | – | > 100 µM (inactive) | – | > 100 µM (inactive) | > 100 µM (inactive) | – | – | > 100 µM (inactive) | > 100 µM (inactive) | –
Cc1nnc([C@@]2(C)CC[C@H]3[C@@H](CCC4=CC(=O)CC[C@@]43C)[C@@H]2CC#N)o1 | > 100 µM (inactive) | > 100 µM (inactive) | > 100 µM (inactive) | > 100 µM (inactive) | > 100 µM (inactive) | > 100 µM (inactive) | > 100 µM (inactive) | > 100 µM (inactive) | > 100 µM (inactive) | – | > 100 µM (inactive) | > 100 µM (inactive) | > 100 µM (inactive) | > 100 µM (inactive) | 41 µM (inactive) | > 100 µM (inactive) | > 100 µM (inactive) | > 100 µM (inactive) | > 100 µM (inactive) | –
CC1(C)N=C(N)N=C(N)N1c1cccc(OCCOc2ccc([N+](=O)[O-])cc2)c1 | > 100 µM (inactive) | 7.33 µM (inactive) | 15.2 µM (inactive) | 41.6 µM (inactive) | 3.68 µM (inactive) | > 100 µM (inactive) | 5.04 µM (inactive) | 0.238 µM (active) | > 100 µM (inactive) | – | > 100 µM (inactive) | 74.6 µM (inactive) | 5.04 µM (inactive) | 69.5 µM (inactive) | – | – | 16 µM (inactive) | 8.24 µM (inactive) | 66.8 µM (inactive) | –
Cc1cn(C2CC(COCc3ccccc3)N(CCO[Si](C)(C)C(C)(C)C)O2)c(=O)[nH]c1=O (stereo not given) | 17.6 µM (inactive) | 19.2 µM (inactive) | 19.1 µM (inactive) | 15 µM (inactive) | 15.5 µM (inactive) | 16.4 µM (inactive) | 21.3 µM (inactive) | 35.1 µM (inactive) | 8.81 µM (inactive) | – | – | 15.5 µM (inactive) | 13 µM (inactive) | 2.88 µM (inactive) | – | 14.3 µM (inactive) | 18.5 µM (inactive) | 15.4 µM (inactive) | – | 13.5 µM (inactive)
CCOC(=O)c1nc2c(Cl)c3ncccc3cc2[nH]c1=O | > 100 µM (inactive) | 23 µM (inactive) | 34.8 µM (inactive) | 26.2 µM (inactive) | 43.3 µM (inactive) | 22.8 µM (inactive) | 44.6 µM (inactive) | 8.73 µM (inactive) | 40.6 µM (inactive) | 19.6 µM (inactive) | 31.7 µM (inactive) | 29.9 µM (inactive) | 32.1 µM (inactive) | 9.04 µM (inactive) | 17.2 µM (inactive) | 30.1 µM (inactive) | 30.3 µM (inactive) | 38 µM (inactive) | 14.2 µM (inactive) | –
CC(C)(C)OC(=O)NC(Cc1ccc(O)cc1)C(=O)NC(CCCCN)C(=O)O (stereo not drawn) (Boc-Tyr-Lys-OH; configuration not given here) | – | 20.9 µM (inactive) | – | 28.4 µM (inactive) | 33.3 µM (inactive) | – | 34.6 µM (inactive) | 28.6 µM (inactive) | – | 28.9 µM (inactive) | – | 35.2 µM (inactive) | 20.7 µM (inactive) | 28.1 µM (inactive) | 31.6 µM (inactive) | – | 30.4 µM (inactive) | 47.4 µM (inactive) | 23.7 µM (inactive) | 15.3 µM (inactive)
NS(=O)(=O)c1ccc2c(c1)OCCOCCOCCOCCO2 | > 100 µM (inactive) | – | > 100 µM (inactive) | – | > 100 µM (inactive) | > 100 µM (inactive) | > 100 µM (inactive) | > 100 µM (inactive) | – | > 100 µM (inactive) | > 100 µM (inactive) | > 100 µM (inactive) | > 100 µM (inactive) | > 100 µM (inactive) | > 100 µM (inactive) | – | > 100 µM (inactive) | > 100 µM (inactive) | > 100 µM (inactive) | > 100 µM (inactive)
COC(=O)C1Cc2c([nH]c3ccccc23)C(C2CCCCC2)N1 (stereo not given) | > 100 µM (inactive) | > 100 µM (inactive) | > 100 µM (inactive) | > 100 µM (inactive) | > 100 µM (inactive) | > 100 µM (inactive) | > 100 µM (inactive) | > 100 µM (inactive) | > 100 µM (inactive) | > 100 µM (inactive) | – | > 100 µM (inactive) | – | 52.7 µM (inactive) | > 100 µM (inactive) | – | – | > 100 µM (inactive) | > 100 µM (inactive) | –
N#C/C(=C\c1cccc(Cl)c1Cl)c1ccccc1 | 45.7 µM (inactive) | 36.2 µM (inactive) | 35.1 µM (inactive) | 46.9 µM (inactive) | > 53 µM (inactive) | 38.4 µM (inactive) | 58.1 µM (inactive) | > 38.1 µM (inactive) | 44.5 µM (inactive) | > 79.3 µM (inactive) | – | 53.3 µM (inactive) | – | 65.3 µM (inactive) | 19.1 µM (inactive) | – | – | > 89.5 µM (inactive) | > 100 µM (inactive) | –

From ChEMBL document CHEMBL1201862, “PubChem BioAssay data set” (2004)
